Laboratory results reported in ChEMBL document CHEMBL4483862, “Open-source discovery of chemical leads for next-generation chemoprotective antimalarials” (2018).

System: Plasmodium berghei
Assay: Luciferase/luciferin-expressing antifolate-resistant parasites were used to infect a culture of HepG2 cells that were pre-incubated with compounds. Infected hepatocytes emit light due to the luciferase reaction. Assay results are presented as the percent inhibition of light emission compared to control. […]
Format: functional
Settings: sporozoite; for IC90: read-out: LUCIFERASE INFECTION ASSAY - IC90
[1] = read-out: LUCIFERASE INFECTION ASSAY - IC50

| Structure (SMILES) | IC90 | further results |
| --- | --- | --- |
| CCn1c2ccccc2c2cc(NC(=O)C(C)OC(=O)C3C(C(=O)OC)=C(C)NC(C)=C3C(=O)OC)ccc21 (configuration not stated) | > 10 µM | IC50 (FFLUC_HILL_SLOPE 9.58, FFLUC_R_SQUARED 0.157, read-out: LUCIFERASE INFECTION ASSAY - IC50): > 10 µM |
| O=C(Nc1ccccc1SCc1ccsc1)C1CCCCC1 | > 10 µM | IC50 [1]: > 10 µM |
| CCCNC(=O)c1c(NC(=O)c2ccc(C(F)(F)F)cc2)nc2ccccn12 | 0.441 µM | IC50 (FFLUC_HILL_SLOPE 16.1, FFLUC_R_SQUARED 0.832, HEPG2TOX_HILL_SLOPE 0.765, HEPG2TOX_R_SQUARED 0.858, PBLUC_HILL_SLOPE 8.91, PBLUC_R_SQUARED 0.524, read-out: LUCIFERASE INFECTION ASSAY - IC50): 0.344 µM |
| O=C(Nc1sc2c(c1CN1CCN(C(=O)c3ccco3)CC1)CCCC2)c1ccccc1F | > 10 µM | IC50 [1]: > 10 µM |
| Cc1c(C(=O)NC2CCN(Cc3ccccc3)C2)oc2c(Cl)cccc12 (configuration not stated) | > 10 µM | IC50 [1]: > 10 µM |
| COc1ccc(-c2cnc3cnc(-c4ccc(CNc5ccccc5)cc4)cn23)cc1 | > 8.12 µM | IC50 (FFLUC_HILL_SLOPE 9.54, FFLUC_R_SQUARED 0.167, PBLUC_HILL_SLOPE 2.96, PBLUC_R_SQUARED 0.482, read-out: LUCIFERASE INFECTION ASSAY - IC50): 4.66 µM |
| CCOc1cccc(-c2cn3c(-c4ccc(C(=O)NC5CC5)cc4)cnc3cn2)c1 | 8.02 µM | IC50 (HEPG2TOX_HILL_SLOPE 1.3, HEPG2TOX_R_SQUARED 0.854, PBLUC_HILL_SLOPE 1.74, PBLUC_R_SQUARED 0.806, read-out: LUCIFERASE INFECTION ASSAY - IC50): 2.27 µM |
| CCOc1ccc(C(=O)Nc2ccc(N(CC)CC)cc2)cc1Br | 3.6 µM | IC50 (HEPG2TOX_HILL_SLOPE 11.9, HEPG2TOX_R_SQUARED 0.281, PBLUC_HILL_SLOPE 11.4, PBLUC_R_SQUARED 0.34, read-out: LUCIFERASE INFECTION ASSAY - IC50): 2.97 µM |
| COc1cc(OC)c(NC(=O)c2cc3ccccc3cc2OCC(=O)NCc2ccco2)cc1Cl | > 10 µM | IC50 (PBLUC_HILL_SLOPE 22.1, PBLUC_R_SQUARED 0.617, read-out: LUCIFERASE INFECTION ASSAY - IC50): 9.17 µM |
| Cc1ccc(Cn2ncc3c(C(=O)N4CCN(c5ncccn5)CC4)cc(C)nc32)cc1 | > 10 µM | IC50 (HEPG2TOX_HILL_SLOPE 0.12, HEPG2TOX_R_SQUARED 0.204, PBLUC_HILL_SLOPE 1.61, PBLUC_R_SQUARED 0.516, read-out: LUCIFERASE INFECTION ASSAY - IC50): 8.29 µM |
| O=C1C(=C2NN=NN2c2ccc(-c3ccccc3)cc2)C=Nc2ccccc21 | > 9.03 µM | IC50 (PBLUC_HILL_SLOPE 3.52, PBLUC_R_SQUARED 0.301, read-out: LUCIFERASE INFECTION ASSAY - IC50): 6.48 µM |
| CC(C)(C)c1ccc(C(=N)SC(C(=O)C(F)(F)F)c2ccccc2)cc1 (configuration not stated) | 2.03 µM | IC50 (FFLUC_HILL_SLOPE 64.5, FFLUC_R_SQUARED 0.585, PBLUC_HILL_SLOPE 1.09, PBLUC_R_SQUARED 0.88, read-out: LUCIFERASE INFECTION ASSAY - IC50): 0.269 µM |
| N#C/C(=N\Nc1ccc(OC(F)(F)F)cc1)S(=O)(=O)c1ccccn1 | > 8.91 µM | IC50 [1]: > 8.91 µM |
| O=C(Nc1ccccc1C(=O)OCCC(F)(F)F)c1ccccc1 | > 10 µM | IC50 [1]: > 10 µM |
| COc1cc(-c2nc3ccc(NC(=O)COc4ccccc4)cn3n2)cc(OC)c1OC | > 10 µM | IC50 (PBLUC_HILL_SLOPE 1.9, PBLUC_R_SQUARED 0.239, read-out: LUCIFERASE INFECTION ASSAY - IC50): 5.59 µM |
| COc1ccc(/C=C/C2=NNC(=O)CC2)cc1 | > 14.3 µM | IC50 (HEPG2TOX_HILL_SLOPE 0.708, HEPG2TOX_R_SQUARED 0.9, read-out: LUCIFERASE INFECTION ASSAY - IC50): > 14.3 µM |
| Cc1cccc(C)c1Nc1nnc(C(O)c2ccc(F)c(Cl)c2)s1 (configuration not stated) | > 10 µM | IC50 (PBLUC_HILL_SLOPE 1.46, PBLUC_R_SQUARED 0.342, read-out: LUCIFERASE INFECTION ASSAY - IC50): 2.96 µM |
| CCN(Cc1cccc(F)c1)C(=O)Nc1ccccc1-n1nc(C)cc1C | > 10 µM | IC50 [1]: > 10 µM |
| CC1c2ccsc2CCN1C(=S)NC(=O)c1ccc(Cl)cc1 (configuration not stated) | > 9.4 µM | IC50 (HEPG2TOX_HILL_SLOPE 6.89, HEPG2TOX_R_SQUARED 0.823, PBLUC_HILL_SLOPE 41.7, PBLUC_R_SQUARED 0.0283, read-out: LUCIFERASE INFECTION ASSAY - IC50): 9.18 µM |
| COc1cc(-c2cn3c(-c4ccc5ncccc5c4)cnc3cn2)ccc1O | 4.57 µM | IC50 (HEPG2TOX_HILL_SLOPE 2.88, HEPG2TOX_R_SQUARED 0.967, PBLUC_HILL_SLOPE 7.35, PBLUC_R_SQUARED 0.638, read-out: LUCIFERASE INFECTION ASSAY - IC50): 3.39 µM |
| Cc1ccc(Sc2ccc(NC(=O)C3CC(=O)N(C4CC4)C3)cc2)c(C)c1 (configuration not stated) | > 10 µM | IC50 [1]: > 10 µM |

| Structure (SMILES) | IC90 | further results |
| --- | --- | --- |
| Cc1cc(N(CCC#N)C(=O)Cn2ncc(Cl)c(Cl)c2=O)ccc1Cl | 5.85 µM | IC50 [1]: 5.68 µM |
| CCOc1ccc(-c2nc(CC(=O)NCc3ccnc(OC)c3)cs2)cc1 | 3.46 µM | IC50 (PBLUC_HILL_SLOPE 12.8, PBLUC_R_SQUARED 0.477, read-out: LUCIFERASE INFECTION ASSAY - IC50): 2.91 µM |
| Cc1cc(C(=O)N/N=C2\C(=O)Nc3ccccc32)c(C)n1-c1ccc(F)cc1 | > 10 µM | IC50 (PBLUC_HILL_SLOPE 1.9, PBLUC_R_SQUARED 0.511, read-out: LUCIFERASE INFECTION ASSAY - IC50): 3.94 µM |
| CC(C)c1c(C(=O)NNC(=O)c2ccc3ccccc3n2)cnn1-c1ccccc1 | 3.77 µM | IC50 (HEPG2TOX_HILL_SLOPE 12.8, HEPG2TOX_R_SQUARED 0.528, PBLUC_HILL_SLOPE 15.6, PBLUC_R_SQUARED 0.425, read-out: LUCIFERASE INFECTION ASSAY - IC50): 3.28 µM |
| Oc1c(Cl)cc(Cl)cc1-c1ccn[nH]1 | > 14.4 µM | IC50 [1]: > 14.4 µM |
| COc1ccc(-c2cnc3cnc(-c4ccc5c(ccn5C)c4)cn23)cn1 | 1.22 µM | IC50 (HEPG2TOX_HILL_SLOPE 1.17, HEPG2TOX_R_SQUARED 0.992, PBLUC_HILL_SLOPE 12.5, PBLUC_R_SQUARED 0.775, read-out: LUCIFERASE INFECTION ASSAY - IC50): 1.02 µM |
| Cc1c(C(=O)c2ccccc2)oc2ccc(NC(=O)c3ccco3)cc12 | > 9.56 µM | IC50 (PBLUC_HILL_SLOPE 11.9, PBLUC_R_SQUARED 0.0568, read-out: LUCIFERASE INFECTION ASSAY - IC50): > 9.56 µM |
| Cn1c(N)c(C(=O)COC(=O)c2c3c(nc4ccccc24)/C(=C/c2ccc(O)cc2)CCC3)c(=O)n(C)c1=O | 6.45 µM | IC50 [1]: 2.66 µM |
| CCOC(=O)c1nn(Cc2cccc(OC)c2)c2c1CN(C(=O)c1cc3ccccc3o1)CC2 | > 7.18 µM | IC50 (PBLUC_HILL_SLOPE 17.5, PBLUC_R_SQUARED 0.669, read-out: LUCIFERASE INFECTION ASSAY - IC50): 7.12 µM |
| O=C(NNC(=O)c1sccc1OCc1ncc(C(F)(F)F)cc1Cl)c1ccccc1 | > 7.24 µM | IC50 (PBLUC_HILL_SLOPE 1.3, PBLUC_R_SQUARED 0.614, read-out: LUCIFERASE INFECTION ASSAY - IC50): 4.13 µM |
| CCOC(=O)c1sc2c(c1C)C(c1ccccc1)C1C(=O)CC(C)(C)CC1=N2 (configuration not stated) | 4.4 µM | IC50 [1]: 1.87 µM |
| CCCCNC(=O)c1c(NC(=O)c2cccc(C)c2)nc2ccccn12 | 6.37 µM | IC50 (HEPG2TOX_HILL_SLOPE 8.37, HEPG2TOX_R_SQUARED 0.0961, PBLUC_HILL_SLOPE 7.21, PBLUC_R_SQUARED 0.187, read-out: LUCIFERASE INFECTION ASSAY - IC50): 4.7 µM |
| CCCOc1ccc(/C=C/C(=O)Nc2ccc(Br)c(C(F)(F)F)c2)cc1OCC | > 10 µM | IC50 (FFLUC_HILL_SLOPE 178, FFLUC_R_SQUARED 0.15, HEPG2TOX_HILL_SLOPE 0.174, HEPG2TOX_R_SQUARED 0.586, PBLUC_HILL_SLOPE 2.73, PBLUC_R_SQUARED 0.361, read-out: LUCIFERASE INFECTION ASSAY - IC50): 7.97 µM |
| CCOC(=O)c1[nH]c(C)c(C(=O)OCC(=O)Nc2ccc(Cl)cn2)c1C | 2.91 µM | IC50 (HEPG2TOX_HILL_SLOPE 0.952, HEPG2TOX_R_SQUARED 0.987, PBLUC_HILL_SLOPE 2.41, PBLUC_R_SQUARED 0.555, read-out: LUCIFERASE INFECTION ASSAY - IC50): 1.17 µM |
| Oc1cccc(-c2cnc3cnc(-c4ccccc4)cn23)c1 | > 11.5 µM | IC50 (HEPG2TOX_HILL_SLOPE 7.12, HEPG2TOX_R_SQUARED 0.466, PBLUC_HILL_SLOPE 2.24, PBLUC_R_SQUARED 0.572, read-out: LUCIFERASE INFECTION ASSAY - IC50): 7.48 µM |
| Cc1ccc(-n2c(Sc3ccc([N+](=O)[O-])c4cnccc34)nnc2-c2ccccc2)cc1C | > 10 µM | IC50 (HEPG2TOX_HILL_SLOPE 0.296, HEPG2TOX_R_SQUARED 0.243, PBLUC_HILL_SLOPE 1.34, PBLUC_R_SQUARED 0.0191, read-out: LUCIFERASE INFECTION ASSAY - IC50): > 10 µM |
| CCOc1ccc(C(C)=O)cc1COC(=O)c1cc(-c2cccc3ccccc23)nc2ccccc12 | > 10 µM | IC50 (FFLUC_HILL_SLOPE 1.76, FFLUC_R_SQUARED 0.222, read-out: LUCIFERASE INFECTION ASSAY - IC50): > 10 µM |
| CC(C)Cc1ccc(C(C)c2nn3c(-c4cccnc4)nnc3s2)cc1 (configuration not stated) | 5.44 µM | IC50 (HEPG2TOX_HILL_SLOPE 0.365, HEPG2TOX_R_SQUARED 0.691, PBLUC_HILL_SLOPE 1.54, PBLUC_R_SQUARED 0.896, read-out: LUCIFERASE INFECTION ASSAY - IC50): 1.31 µM |
| Clc1ccc2c(NCCCNc3ccccn3)ncnc2c1 | > 10 µM | IC50 [1]: > 10 µM |
| Cc1cc(C)cc(-n2nc(C)c3c2NC(=O)CC3c2ccc3c(c2)OCO3)c1 (configuration not stated) | > 8.79 µM | IC50 (PBLUC_HILL_SLOPE 3.57, PBLUC_R_SQUARED 0.259, read-out: LUCIFERASE INFECTION ASSAY - IC50): 7.56 µM |
